This assay relates to Tresu_2185 (CARD1). The class given is biochemical, Treponema succinifaciens. The protocol:
The reactions were done in a reaction buffer (20 mM Tris-HCl, pH 7.5, 150 mM NaCl, 1 mM DTT, and 5 mM MnCl2, unless otherwise stated, with 250 nM CARD1 and 2.5 uM of cA4, with 2 μg M13 ssDNA (NEB) (FIG. 1b), 500 ng of non-linearized and linearized ΦX174 dsDNA (NEB) (FIGS. 1d, e, respectively) and 2 μg ΦX174 ssDNA (NEB) (FIG. 1a). cA4 and cA6 was obtained from Biolog Life Science Institute GmbH & Co. KG (Bremen, Germany). The reaction products were visualized by agarose gel electrophoresis. For the RNA oligo cleavage assay, 250 nM of a Cy3-labelled RNA oligo was added to the reaction. The reaction products were run on Mini-PROTEAN TBE-Urea precast gel (Bio-Rad), and visualized on a TYPHOON IMAGE SCANNER. For degradation of ssRNA or dsRNA ladders, 1 ug of either ssRNA ladder (NEB) or dsRNA ladder (NEB) was digested. The reaction products were visualized by agarose gel electrophoresis. At the indicated timepoints, all reaction were stopped by the addition of 25 mM of EDTA.

Sequence of Tresu_2185 (CARD1) (as listed by the source): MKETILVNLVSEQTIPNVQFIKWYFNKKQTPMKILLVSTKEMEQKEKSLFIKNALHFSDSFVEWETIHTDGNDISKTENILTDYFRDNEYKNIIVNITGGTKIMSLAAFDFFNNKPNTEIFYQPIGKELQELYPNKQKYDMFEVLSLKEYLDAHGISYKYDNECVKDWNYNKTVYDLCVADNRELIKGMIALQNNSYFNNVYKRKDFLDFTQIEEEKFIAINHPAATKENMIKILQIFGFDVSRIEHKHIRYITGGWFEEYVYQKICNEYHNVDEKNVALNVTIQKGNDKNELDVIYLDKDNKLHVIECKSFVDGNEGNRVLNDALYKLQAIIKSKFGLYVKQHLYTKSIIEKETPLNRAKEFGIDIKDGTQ

For the substance Cyclic Tetra-Adenylate [cA4], the “degradation of RNA oligo by CARD1 in the presence of the cyclic oligoadenylate” value (60 nucleotide RNA oligo) is recorded as “degraded in the presence of cA4”. In addition, the “degradation of ssDNA by Tresu_2185 on addition of the cyclic oligoadenylate” value (circular ΦX174 and M13 ssDNA, 250 nM CARD1, 2.5 uM cA, 5 mM MnCl2, agarose gel) is “resulted in the degradation of circular ΦX174 and M13 ssDNA”. Also, the “cleavage of dsDNA by Tresu_2185 on addition of the cyclic oligoadenylate” value (supercoiled or linearized ΦX174 dsDNA) is “did not promote cleavage”.

For the origin of these results see US12655405B2, “Sequence specific degradation of single-stranded polynucleotides with CARD1 nuclease” (The Rockefeller University, priority 2020, dated 2026).
